The record followed here is patent US20220339135A1, “COMPOSITIONS AND METHODS FOR MODULATING AN INFLAMMATORY RESPONSE” (Enzychem Lifesciences Corporation, priority 2019, published 2022).

Molecules are shown by their SMILES.

Data set [1] concerns MIP-2 and IFN-β in LPS treated macrophage cells. Nature of the data set: MIP-2 and IFN-β in LPS treated macrophage cells. The data set is classed as cell-based.
Data set [2] has as its system citrullinated histone H3 in dHL-60 cells. Put plainly: Histone H3 citrullination, western blot. It is filed as cell-based, human. Conditions: time-dependent. On the procedure: dHL-60 cells were lysed on ice for 30 minutes in RIPA buffer composed of 50 mM Tris-HCl (pH 7.4), 150 mM NaCl, 2 mM EDTA, 1% NP-40, 0.5% sodium deoxycholate, 0.1% SDS, 1 mM phenylmethylsulfonyl fluoride (PMSF), 10 mM sodium fluoride, 2 mM sodium pyrophosphate, 10 mM β-glycerophosphate, 10 mM sodium orthovanadate. The lysates were centrifuged at 13,000 rpm for 20 minutes at 4° C. and protein concentrations were determined using the Bradford assay (Bio-Rad Laboratories). Denatured samples were mixed with a 5×SDS-PAGE loading buffer and heated to 100° C. for 15 min. The samples were separated on the 10% of SDS-PAGE gel and transferred to polyvinylidene difluoride (PVDF) membranes (Merck Millipore Corporation, MA, USA). Membranes were blocked with 5% non-fat milk in PBS (10 mM Tris-HCl, pH7.5, 150 mM NaCl) for 1 h and probed with primary antibodies against histone H3 (citrulline R2+R8+R17) from abcam (USA) and β-actin from cell signaling (USA) for overnight at 4° C. The blots were washed and incubated with appropriate secondary antibodies and visualized using Pierce™ ECL Western Blotting Substrate (Thermo Scientific).
For orientation: In western blotting, separated proteins are transferred to a membrane and probed.

Another data set deals with CXCL8 in THP-1 cells. Put plainly: MSU crystal-induced CXCL8 in CD36 silenced THP-1 cells, ELISA. As to conditions: PLAG 10, 100 μg/ml. The data set is classed as cell-based, human. On the procedure:
The specific siRNA of CD36 (sc-29995) and control siRNA (sc-37007) were purchased from Santa Cruz Biotechnology. Cells were transfected with 50 nM of either the targeting or control siRNA using HiPerFect Transfection Reagent (Qiagen, Hilden, Germany) for 24 h. The knockdown efficiency of siRNAs was confirmed by Western blot analysis.
Transfected THP-1 cells were pre-incubated with PLAG (10, 100 μg/ml) for 1 hour and then stimulated with MSU crystal (400 μg/ml). After 24 hours, cells were centrifuged, and the supernatant was harvested. The concentrations of CXCL8 in the supernatant of THP-1 cells were measured using Human CXCL8 ELISA kit (BD bioscience, New Jersey, USA) according to the manufacturer's instructions. The cytokine levels were estimated by interpolation from a standard curve using an ELISA reader (Molecular Devices, Sunnyvale, USA) at 450 nm.
Background: ELISA stands for enzyme-linked immunosorbent assay.

For a further data set, the system named is HMGB1 and S100A9. Put plainly: Radiation-induced DAMP molecules in mice serum, western blot. The data set is classed as in vivo. Conditions: 6.11Gy, PLAG 50, 250 mg/kg oral 3 days. On the procedure: The total-body of mice were irradiated with a gamma-ray of 6.11Gy on day 0. After that, the body weight of 1 day was measured and divided into 3 groups according to the average. PLAG (50, 250 mg/kg) or PBS was orally administered for 3 days from 1 day and sacrificed on the 3rd day. Add 3 ul serum to 97 ul of 1×SDS sample buffer and boiled for 10 min. Proteins from each sample were separated by sodium dodecyl sulfate-polyacrylamide gel electrophoresis on 8% polyacrylamide gels and the proteins were blotted onto a PVDF membrane (Millipore Corporation, Germany). The membrane was blocked with 5% non-fat dried milk (BD bioscience) in PBS containing 0.05% Tween-20 (Calbiochem) for 1 h. The membrane was incubated with anti-HMGB1 (abcam), anti-MRP14 (abcam) at 4° C. overnight. After washing with PBS containing 0.05% Tween-20, the membrane was stained with goat anti-rabbit IgG peroxidase (ENZO). Target proteins were detected with Immobilon Western Chemiluminescent HRP Substrate (Millipore Corporation).

Data set [3] deals with chemotherapy-induced neutropenia. Put plainly: Chemotherapy-induced neutropenia in pancreatic cancer patients. It is filed as in vivo, human. An excerpt: From January 2014 to September 2014, 16 patients with histologically or cytologically confirmed unresectable pancreatic cancer were enrolled in this study. […] Historical controls were also recruited from Asan Medical Center from March 2012 to December 2013. The eligibility criteria for the control group were the same as those for cases who intake PLAG during gemcitabine-based chemotherapy. The control group (n=32) was matched to the PLAG group (n=16) based on age, performance status, chemotherapy cycle, comorbidity, and disease extent. This study was approved by a hospital institutional review board.
All patients received gemcitabine 1,000 mg/m^2 on days 1, 8, and 15 of each 4-week schedule and daily erlotinib at 100 mg orally. In the PLAG group, PLAG 500 mg was orally administered twice daily from the start of the chemotherapy to the completion. Hematology and serum chemistry analyses were performed at screening baseline, then weekly until the end of the study. Febrile neutropenia (FN) was defined as an ANC of less than 1,000/mm^3 and an oral temperature of more than 38° C. on the same day or the following day after chemotherapy. If on the day of chemotherapy administration, a patient's ANC was reduced to 500-1,000/mm^3 or if the absolute platelet count was reduced to 50,000-100,000/mm^3, the gemcitabine dose was reduced by 75%. Gemcitabine was omitted for 1 week if the neutrophil count was lower than 500/mm^3, or the absolute platelet count was lower than 50,000/mm^3. […] Erlotinib dose was interrupted in patients within tolerable rash and was reduced or discontinued if symptoms persisted for 10-14 days. Erlotinib dose was reduced for grade 2 diarrhea persisting for 48-72 h and for grade 3 diarrhea following resolution to grade 1; erlotinib was permanently discontinued for grade 4 diarrhea. Treatment continued until disease progression unacceptable toxicity, withdrawal of patient's consent or physician's decision. Safety was evaluated throughout the entire study. Toxicity was graded based on the NCI Common Terminology Criteria for Adverse Events (CTCAE) version 3.0.
The primary endpoint was neutropenia, and the secondary endpoint was a safety profile. All analyses were performed using SPSS version 17.0 (SPSS Inc., Chicago, Ill., USA). Descriptive statistics were used to evaluate demographics, and safety data continuous variables were compared using the Mann-Whitney U test, paired t-test, and independent T-test. A P value of <0.05 was considered statistically significant.

In the case of `CCCCC/C=C\C/C=C\CCCCCCCC(=O)OC(COC(C)=O)COC(=O)CCCCCCCCCCCCCCC` (racemic) [PLAG, 1-palmitoyl-2-linoleoyl-3-acetylglycerol], in data set [1] (LPL or GPIHBP1 silenced cell), the “modulation of chemokine MIP-2 in silenced cell” value is listed as “not capable of modulating”. Also, in data set [1] (LPS treated macrophage cells), the “chemokine MIP-2 and cytokine IFN-β” value was “effectively down-regulates”. Further, in data set [2], the “histone H3 citrullination” value was “induced”. The “decrease of CXCL8 induced by MSU crystal” value in the data set with CXCL8 in THP-1 cells is reported as “still shown”. Besides, the “level of HMGB1 and S100A9 induced by radiation” value in the data set with HMGB1 and S100A9 is listed as “significantly decreased”. Also, the “incidence of neutropenia (ANC<1,500/mm^3, grade 2-4)” value in data set [3] (PLAG 500 mg orally twice daily with gemcitabine + erlotinib, n=16) came to 37.5%. In data set [3] (PLAG group), the “ANC nadir (relative to baseline)” value was “about 0.75” and the “febrile neutropenia (FN)” value is listed as “did not occur”. In addition, the “severe neutropenia (ANC<500/mm^3, grade 4)” value in data set [3] (PLAG group vs control group) is recorded as “developed only in the control group”. Further, the “adverse events related to PLAG during chemotherapy” value in data set [3] (including nausea/vomiting, bone pain, fatigue, liver dysfunction) is on record as “no adverse events related to PLAG”. Also, in data set [3] (vs control group, P<0.05), the “decrease of ANCs from the baseline level” value is “decreased significantly less”.
